Data set [1] can be described thus: Dissolution testing of tablet formulations A and B (USP apparatus II with paddles, 50 rpm, 900 ml 0.1N HCl). It counts as physicochemical. As to conditions: USP apparatus II paddles 50 rpm, typical range for both formulations. Here is the method:
Tablet formulations A and B prepared as above are subjected to dissolution testing for both levodopa and carbidopa (USP apparatus II with paddles, 50 rpm, dissolution medium 900 ml 0.1N HCl) over a 12 hour period.

For data set [2] the following is noted: approximately; background statement; cited from earlier work.

As to `C[C@@](Cc1ccc(O)c(O)c1)(NN)C(=O)O` [carbidopa], the “% Dissolved” value in data set [1] (time 1 h) is 15-25%; in data set [1] (time 2 h), 25-40%; in data set [1] (time 4 h), 40-70%; in data set [1] (time 8 h) it was 65-80%; in data set [1] (time 12 h) it was 80-95%.
In the case of `N[C@@H](Cc1ccc(O)c(O)c1)C(=O)O` [levodopa, 3,4-dihydroxy-L-phenylalanine], the “% Dissolved” value is on record as 15-25% in data set [1] (time 1 h); 25-40% in data set [1] (time 2 h); 40-70% in data set [1] (time 4 h); 65-80% in data set [1] (time 8 h); 80-95% in data set [1] (time 12 h). Besides, the half-life in data set [2] was 45 to 90 min.

Source of the values: patent US20080139655A1, “SUSTAINED-RELEASE COMPOSITION AND METHOD OF USE THEREOF” (DrugTech Corporation, priority 2006, published 2008).
